Laboratory results taken from PubChem BioAssay AID248 (DTP/NCI, 2004).
Values joined by “and” are separate entries in the source; they are usually repeats but may differ in a detail not shown here. Identical values can stand only once. Inconclusive results and toxic doses are left out.

Tested on: L1210 leukemia ip in BDF1 mice, survival T/C
Experiment: NCI In Vivo Anticancer Drug Screen. Data for tumor model L1210 Leukemia (intraperitoneal) in B6D2F1 (BDF1) mice
Settings: endpoint: mean survival time, higher = longer survival
In short: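 Survival endpoint. Drug-treated group vs vehicle group, expressed as T divided by C. Tumor passaged by transplantation.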

O=C(Nc1ccc(NC2=NCCN2)cc1)c1ccc(C(=O)Nc2ccc(NC3=NCCN3)cc2)cc1
T/C (dose: 15.0 mg/kg/injection, schedule: Q01DX Z (ip), vehicle: methylcellulose (MC)): 184 % of control | T/C (dose: 15.0 mg/kg/injection, schedule: Q01DX Z (ip), vehicle: saline): 161 % of control | T/C (dose: 16.0 mg/kg/injection, schedule: Q01DX001 (ip), vehicle: saline): 155 % of control | T/C (dose: 16.0 mg/kg/injection, schedule: Q01DX Z (sc), vehicle: saline): 152 % of control | T/C (dose: 18.0 mg/kg/injection, schedule: Q01DX001 (ip), vehicle: other): 172 % of control | T/C (dose: 18.0 mg/kg/injection, schedule: Q#A X Z (ip), vehicle: saline): 109 % of control | T/C (dose: 20.0 mg/kg/injection, schedule: Q01DX010 (sc), vehicle: olive oil, sesame oil, peanut oil): 87 % of control | T/C (dose: 20.0 mg/kg/injection, schedule: Q02DX004 (im), vehicle: olive oil, sesame oil, peanut oil): 175 % of control and 196 % of control | T/C (dose: 21.0 mg/kg/injection, schedule: Q07DX Z (ip), vehicle: saline): 184 % of control | T/C (dose: 24.0 mg/kg/injection, schedule: Q01DX007 (iv), vehicle: saline): 174 % of control | T/C (dose: 24.0 mg/kg/injection, schedule: Q01DX Z (ip), vehicle: saline): 120 % of control | T/C (dose: 24.0 mg/kg/injection, schedule: Q01DX Z (sc), vehicle: saline): 113 % of control | T/C (dose: 26.0 mg/kg/injection, schedule: Q01DX001 (ip), vehicle: carboxymethylcellulose (CMC)): 210 % of control | T/C (dose: 26.0 mg/kg/injection, schedule: Q01DX001 (ip), vehicle: other): 154 % of control and 200 % of control | T/C (dose: 30.0 mg/kg/injection, schedule: Q01DX Z (ip), vehicle: saline): 114 % of control | T/C (dose: 36.0 mg/kg/injection, schedule: Q01DX007 (iv), vehicle: saline): 210 % of control | T/C (dose: 36.0 mg/kg/injection, schedule: Q01DX Z (ip), vehicle: saline): 96 % of control | T/C (dose: 40.0 mg/kg/injection, schedule: Q01DX001 (im), vehicle: steriod suspending solution): 176 % of control | T/C (dose: 40.0 mg/kg/injection, schedule: Q01DX001 (ip), vehicle: carboxymethylcellulose (CMC)): 194 % of control and 206 % of control | T/C (dose: 40.0 mg/kg/injection, schedule: Q01DX001 (ip), vehicle: other): 198 % of control and 201 % of control | T/C (dose: 40.0 mg/kg/injection, schedule: Q02DX004 (im), vehicle: olive oil, sesame oil, peanut oil): 109 % of control and 110 % of control | T/C (dose: 54.0 mg/kg/injection, schedule: Q01DX007 (iv), vehicle: saline): 233 % of control | T/C (dose: 60.0 mg/kg/injection, schedule: Q01DX001 (ip), vehicle: carboxymethylcellulose (CMC)): 251 % of control and 296 % of control | T/C (dose: 60.0 mg/kg/injection, schedule: Q01DX001 (ip), vehicle: other): 224 % of control and 297 % of control | T/C (dose: 60.0 mg/kg/injection, schedule: Q01DX Z (ip), vehicle: saline): 103 % of control | T/C (dose: 64.0 mg/kg/injection, schedule: Q01DX010 (oral), vehicle: saline): 108 % of control | T/C (dose: 72.0 mg/kg/injection, schedule: Q01DX001 (ip), vehicle: saline): 215 % of control and 232 % of control and 264 % of control | T/C (dose: 75.0 mg/kg/injection, schedule: Q01DX Z (oral), vehicle: saline): 95 % of control | T/C (dose: 80.0 mg/kg/injection, schedule: Q01DX001 (im), vehicle: saline): 213 % of control | T/C (dose: 80.0 mg/kg/injection, schedule: Q01DX001 (im), vehicle: steriod suspending solution): 211 % of control | T/C (dose: 80.0 mg/kg/injection, schedule: Q02DX004 (im), vehicle: olive oil, sesame oil, peanut oil): 87 % of control | T/C (dose: 81.0 mg/kg/injection, schedule: Q01DX007 (iv), vehicle: saline): 97 % of control | T/C (dose: 81.0 mg/kg/injection, schedule: Q01DX Z (ip), vehicle: saline): 122 % of control | T/C (dose: 90.0 mg/kg/injection, schedule: Q01DX001 (ip), vehicle: carboxymethylcellulose (CMC)): 244 % of control | T/C (dose: 90.0 mg/kg/injection, schedule: Q01DX001 (ip), vehicle: other): 265 % of control | T/C (dose: 96.0 mg/kg/injection, schedule: Q01DX010 (oral), vehicle: saline): 111 % of control | T/C (dose: 144.0 mg/kg/injection, schedule: Q01DX010 (oral), vehicle: saline): 97 % of control and 119 % of control | T/C (dose: 150.0 mg/kg/injection, schedule: Q01DX Z (oral), vehicle: saline): 101 % of control | T/C (dose: 160.0 mg/kg/injection, schedule: Q01DX001 (im), vehicle: saline): 243 % of control | T/C (dose: 320.0 mg/kg/injection, schedule: Q01DX001 (im), vehicle: saline): 271 % of control | T/C (dose: 576.0 mg/kg/injection, schedule: Q01DX001 (ip), vehicle: saline): 110 % of control | T/C (dose: 576.0 mg/kg/injection, schedule: Q01DX010 (oral), vehicle: saline): 116 % of control | T/C (dose: 600.0 mg/kg/injection, schedule: Q01DX Z (oral), vehicle: saline): 122 % of control
